One assay deals with T1, human CD38 (Homo sapiens, UniProt P28907).
T1 construct: purchased Bio-Techne GmbH AVI2404
T1 sequence (P28907 1-300): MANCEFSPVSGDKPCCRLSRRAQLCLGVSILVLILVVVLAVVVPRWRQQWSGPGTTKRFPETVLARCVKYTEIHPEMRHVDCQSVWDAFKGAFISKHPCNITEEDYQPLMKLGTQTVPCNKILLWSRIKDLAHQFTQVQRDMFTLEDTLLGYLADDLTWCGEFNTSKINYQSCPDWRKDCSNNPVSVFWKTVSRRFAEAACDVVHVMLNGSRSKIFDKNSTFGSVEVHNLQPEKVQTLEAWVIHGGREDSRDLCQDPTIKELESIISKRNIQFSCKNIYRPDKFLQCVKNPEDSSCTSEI
The assay can be described thus: NAD+ cyclase activity assay with human recombinant CD38 protein (ε-NAD fluorescence). The assay is classed as biochemical. The note with it: 1.9 nM human CD38, substrate ε-NAD, 30 min preincubation, fluorescence 300/410 nm. The procedure, abridged: (§1)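 Twelve-point threefold compound dilutions were given 30 min at room temperature with 0.6 nM mouse or 1.9 nM human CD38 before […] ε-NAD was added (pH 7.5 HEPES/sucrose/Tween buffer). The rate came from the linear-phase slope of ex 300/em 410 nm fluorescence against vehicle and no-CD38 controls.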

The target in another assay is T2, mouse CD38 (Mus musculus, UniProt P56528).
T2 construct: purchased Bio-Techne GmbH 4947-AC
T2 sequence (P56528 1-304): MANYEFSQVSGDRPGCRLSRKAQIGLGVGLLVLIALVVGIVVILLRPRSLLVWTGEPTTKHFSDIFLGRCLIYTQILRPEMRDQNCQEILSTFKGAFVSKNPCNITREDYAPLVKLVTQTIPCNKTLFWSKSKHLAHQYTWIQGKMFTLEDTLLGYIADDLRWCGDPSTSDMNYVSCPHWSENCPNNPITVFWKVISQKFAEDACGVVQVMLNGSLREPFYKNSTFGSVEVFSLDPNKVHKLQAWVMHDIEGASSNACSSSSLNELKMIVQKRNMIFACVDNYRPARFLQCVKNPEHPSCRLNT
Description: NAD+ cyclase activity assay with mouse recombinant CD38 protein (ε-NAD fluorescence). The assay is classed as biochemical. As to conditions: 0.6 nM mouse CD38, substrate ε-NAD, 30 min preincubation, fluorescence 300/410 nm. The procedure, abridged:
as §1

In general, IC50 refers to the concentration that inhibits the measured activity by half.

In the case of `COCCO[C@H]1CC[C@H](NC(=O)c2cc3c(c(C(F)(F)F)c2)OCCn2cncc2-3)CC1` [Compound 55A, N-((1r,4r)-4-(2-Methoxyethoxy)cyclohexyl)-8-(trifluoromethyl)-5,6-dihydrobenzo[f]imidazo[1,5-d][1,4]oxazepine-10-carboxamide], the IC50 at human CD38 is 30 to 100 nM; on mouse CD38, under 1 nM.

Turning to `O=C(N[C@H]1CC[C@H](CCO)CC1)c1ccc2c(c1)-c1cncn1CCO2` [Compound 56A, N-((1r,4r)-4-(2-Hydroxyethyl)cyclohexyl)-5,6-dihydrobenzo[f]imidazo[1,5-d][1,4]oxazepine-10-carboxamide], the half-maximal inhibitory concentration (IC50) at human CD38 was under 30 nM; at mouse CD38 it was 1 to 10 nM.

In the case of `COCCO[C@H]1CC[C@H](NC(=O)c2cc(F)c3c(c2)-c2cncn2CCO3)CC1` [Compound 57A, 8-Fluoro-N-((1r,4r)-4-(2-methoxyethoxy)cyclohexyl)-5,6-dihydrobenzo[f]imidazo[1,5-d][1,4]oxazepine-10-carboxamide], the values for the IC50 at human CD38 and at mouse CD38 were under 30 nM and under 1 nM, respectively.

Take `CC(C)(O)[C@H]1CC[C@H](NC(=O)c2ccc3c(c2)-c2cncn2CCO3)CC1` [Compound 58A, N-((1r,4r)-4-(2-Hydroxypropan-2-yl)cyclohexyl)-5,6-dihydrobenzo[f]imidazo[1,5-d][1,4]oxazepine-10-carboxamide]: the IC50 at human CD38 is under 30 nM; at mouse CD38, under 1 nM.

With `COCCNC(=O)[C@H]1CC[C@H](NC(=O)c2ccc3c(c2)-c2cncn2CCO3)CC1` [Compound 59A, N-((1r,4r)-4-((2-Methoxyethyl)carbamoyl)cyclohexyl)-5,6-dihydrobenzo[f]imidazo[1,5-d][1,4]oxazepine-10-carboxamide], the IC50 on human CD38 was under 30 nM; on mouse CD38, 1 to 10 nM.

On to `CC(=O)N[C@H]1CC[C@H](NC(=O)c2ccc3c(c2)-c2cncn2CCO3)CC1` [Compound 60A, N-((1r,4r)-4-Acetamidocyclohexyl)-5,6-dihydrobenzo[f]imidazo[1,5-d][1,4]oxazepine-10-carboxamide], for which the concentration for half-maximal inhibition (IC50) fell in the range of 100 to 1000 nM at human CD38 and 1 to 10 nM at mouse CD38.

On to `O=C(N[C@H]1CC[C@H](C(=O)NCC(F)(F)F)CC1)c1ccc2c(c1)-c1cncn1CCO2` [Compound 61A, N-((1r,4r)-4-((2,2,2-Trifluoroethyl)carbamoyl)cyclohexyl)-5,6-dihydrobenzo[f]imidazo[1,5-d][1,4]oxazepine-10-carboxamide], for which the half-inhibitory concentration (IC50) on human CD38 is under 30 nM; at mouse CD38, under 1 nM.

In the case of `O=C(N[C@H]1CC[C@H](NCC(F)(F)F)CC1)c1ccc2c(c1)-c1cncn1CCO2` [Compound 62A, N-((1r,4r)-4-((2,2,2-Trifluoroethyl)amino)cyclohexyl)-5,6-dihydrobenzo[f]imidazo[1,5-d][1,4]oxazepine-10-carboxamide], the half-inhibitory concentration (IC50) on human CD38 is under 30 nM; at mouse CD38, 1 to 10 nM.

Turning to `O=C(N[C@H]1CC[C@H](NCC(F)F)CC1)c1ccc2c(c1)-c1cncn1CCO2` [Compound 63A, N-((1r,4r)-4-((2,2-Difluoroethyl)amino)cyclohexyl)-5,6-dihydrobenzo[f]imidazo[1,5-d][1,4]oxazepine-10-carboxamide], the values for the IC50 on human CD38 and at mouse CD38 were under 30 nM and 1 to 10 nM, respectively.

On to `O=C(N[C@H]1CC[C@@H](N2CC(F)(F)C2)CC1)c1ccc2c(c1)-c1cncn1CCO2` [Compound 64A, N-((1s,4s)-4-(3,3-Difluoroazetidin-1-yl)cyclohexyl)-5,6-dihydrobenzo[f]imidazo[1,5-d][1,4]oxazepine-10-carboxamide], for which the figures for the IC50 on human CD38 and on mouse CD38 were 100 to 1000 nM and 10 to 100 nM, respectively.

Take `O=C(N[C@H]1CC[C@H](CO)CC1)c1ccc2c(c1)-c1cncn1CCO2` [Compound 65A, N-((1r,4r)-4-(Hydroxymethyl)cyclohexyl)-5,6-dihydrobenzo[f]imidazo[1,5-d][1,4]oxazepine-10-carboxamide]: the figures for the concentration for half-maximal inhibition (IC50) at human CD38 and on mouse CD38 were under 30 nM and under 1 nM, respectively.

`O=C(NC1CCC(F)(F)C1)c1ccc2c(c1)-c1cncn1CCO2` (centres unmarked) [Compound 66A, N-(3,3-Difluorocyclopentyl)-5,6-dihydrobenzo[f]imidazo[1,5-d][1,4]oxazepine-10-carboxamide]: the IC50 on human CD38 is under 30 nM; on mouse CD38 it was under 1 nM.

Take `COCCC(=O)N[C@H]1CC[C@H](NC(=O)c2ccc3c(c2)-c2cncn2CCO3)CC1` [Compound 67A, N-((1r,4r)-4-(3-Methoxypropanamido)cyclohexyl)-5,6-dihydrobenzo[f]imidazo[1,5-d][1,4]oxazepine-10-carboxamide]: the IC50 was 100 to 1000 nM at human CD38 and 1 to 10 nM on mouse CD38.

Turning to `CC1COc2ccc(C(=O)N[C@@H]3CCCOC3)cc2-c2cncn21` (stereo partly drawn) [Compound 68A, 5-Methyl-N—((R)-tetrahydro-2H-pyran-3-yl)-5,6-dihydrobenzo[f]imidazo[1,5-d][1,4]oxazepine-10-carboxamide], the IC50 on human CD38 was 100 to 1000 nM; at mouse CD38, 10 to 100 nM.

For `O=C(N[C@H]1CC[C@@H](N2CCC(F)(F)C2)CC1)c1ccc2c(c1)-c1cncn1CCO2` [Compound 69A, N-((1s,4s)-4-(3,3-Difluoropyrrolidin-1-yl)cyclohexyl)-5,6-dihydrobenzo[f]imidazo[1,5-d][1,4]oxazepine-10-carboxamide], the IC50 is 100 to 1000 nM on human CD38 and 10 to 100 nM on mouse CD38.

As to `COCCO[C@H]1CC[C@H](NC(=O)c2ccc3c(n2)-n2cncc2CCO3)CC1` [Compound 70A, N-((1r,4r)-4-(2-Methoxyethoxy)cyclohexyl)-6,7-dihydroimidazo[1,5-d]pyrido[3,2-b][1,4]oxazepine-2-carboxamide], the IC50 on human CD38 was in the range of 100 to 1000 nM; on mouse CD38, 10 to 100 nM.

Turning to `O=C(N[C@H]1CC[C@H](N2CCC(F)(F)C2)CC1)c1ccc2c(c1)-c1cncn1CCO2` [Compound 71A, N-((1r,4r)-4-(3,3-Difluoropyrrolidin-1-yl)cyclohexyl)-5,6-dihydrobenzo[f]imidazo[1,5-d][1,4]oxazepine-10-carboxamide], the IC50 on human CD38 was under 30 nM; at mouse CD38, 1 to 10 nM.

Regarding `O=C(N[C@H]1CC[C@H](N2CC(F)(F)C2)CC1)c1ccc2c(c1)-c1cncn1CCO2` [Compound 72A, N-((1r,4r)-4-(3,3-Difluoroazetidin-1-yl)cyclohexyl)-5,6-dihydrobenzo[f]imidazo[1,5-d][1,4]oxazepine-10-carboxamide], the half-maximal inhibitory concentration (IC50) was under 30 nM on human CD38 and under 1 nM at mouse CD38.

`O=C(NC1CCC(F)(F)CC1)c1cc(F)c2c(c1)-c1cncn1CCO2` [Compound 73A, N-(4,4-Difluorocyclohexyl)-8-fluoro-5,6-dihydrobenzo[f]imidazo[1,5-d][1,4]oxazepine-10-carboxamide]: the concentration for half-maximal inhibition (IC50) on human CD38 was under 30 nM; at mouse CD38, under 1 nM.

Consider `C[C@@H](N[C@H]1CC[C@H](NC(=O)c2ccc3c(c2)-c2cncn2CCO3)CC1)C(F)(F)F` [Compound 74A, N-((1r,4r)-4-(((R)-1,1,1-Trifluoropropan-2-yl)amino)cyclohexyl)-5,6-dihydrobenzo[f]imidazo[1,5-d][1,4]oxazepine-10-carboxamide], for which the concentration for half-maximal inhibition (IC50) at human CD38 fell in the range of 30 to 100 nM; on mouse CD38 it was 1 to 10 nM.

For the molecule `O=C(N[C@H]1CC[C@@H](OCCC(F)F)CC1)c1ccc2c(c1)-c1cncn1CCO2` [Compound 77A, N-((1s,4s)-4-(3,3-Difluoropropoxy)cyclohexyl)-5,6-dihydrobenzo[f]imidazo[1,5-d][1,4]oxazepine-10-carboxamide], the 50% inhibitory concentration (IC50) on human CD38 was under 30 nM; at mouse CD38 it was 1 to 10 nM.

Take `O=C(N[C@H]1CC[C@H](OCCC(F)F)CC1)c1ccc2c(c1)-c1cncn1CCO2` [Compound 78A, N-((1r,4r)-4-(3,3-Difluoropropoxy)cyclohexyl)-5,6-dihydrobenzo[f]imidazo[1,5-d][1,4]oxazepine-10-carboxamide]: the IC50 is 100 to 1000 nM on human CD38 and over 100 nM at mouse CD38.

Turning to `O=C(N[C@H]1CC[C@@H](OCCCF)CC1)c1ccc2c(c1)-c1cncn1CCO2` [Compound 79A, N-((1s,4s)-4-(3-Fluoropropoxy)cyclohexyl)-5,6-dihydrobenzo[f]imidazo[1,5-d][1,4]oxazepine-10-carboxamide], the IC50 on human CD38 lay within 100 to 1000 nM; at mouse CD38, 10 to 100 nM.

Turning to `O=C(N[C@H]1CC[C@H](OCCCF)CC1)c1ccc2c(c1)-c1cncn1CCO2` [Compound 80A, N-((1r,4r)-4-(3-Fluoropropoxy)cyclohexyl)-5,6-dihydrobenzo[f]imidazo[1,5-d][1,4]oxazepine-10-carboxamide], the half-inhibitory concentration (IC50) on human CD38 was under 30 nM; on mouse CD38 it was 1 to 10 nM.

For `COCCOc1ncc(NC(=O)c2ccc3c(c2)-c2cncn2CCO3)cn1` [Compound 81A, N-(2-(2-Methoxyethoxy)pyrimidin-5-yl)-5,6-dihydrobenzo[f]imidazo[1,5-d][1,4]oxazepine-10-carboxamide], the IC50 is under 30 nM on human CD38 and 1 to 10 nM at mouse CD38.

The values are drawn from patent US20260138990A1, “TRICYCLIC FUSED IMIDAZOLE COMPOUNDS AS CD38 MODULATORS AND USES THEREOF” (AEOVIAN PHARMACEUTICALS, INC., priority 2023, published 2026).
